The values below come from US10189845B2, “4,6-substituted-pyrazolo[1,5-a]pyrazines as janus kinase inhibitors” (ARRAY BIOPHARMA INC., priority 2014, dated 2019).

Read-outs that look alike come from different tables or passages of the source.

What is called IC50 is the concentration that inhibits the measured activity by half.

Common to all, as to format: biochemical
The target of one assay is JAK3 (Homo sapiens (Human), UniProt P52333). Kind of assay: JAK3 Inhibition Assay (Example D, Omnia kinase fluorescence peptide substrate assay). Summed up: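 Mixture held 2 nM JAK3, 1 mM ATP and 10 μM Omnia Y7 peptide in 25 mM HEPES pH 7.4, 10 mM MgCl2, 0.01% Triton X-100, 1 mM DTT, 2% DMSO final. Sox fluorescence (ex 360/em 485 nm) was read every 50 s for 45 min. IC50 came from a 4-parameter logistic fit of percent of control.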

For the next assay, the target named is Human Tyk2 kinase domain (Homo sapiens (Human), UniProt P29597). Briefly: Tyk2 Inhibition Assay (Example A, Omnia kinase fluorescence peptide substrate assay). To be noted: TYK2 Enzyme IC50 1 mM ATP, averaged IC50 ranges. The procedure, abridged:
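Omnia Sox-peptide kinetic fluorescence assay (ex 360/em 485 nm, read every 50 s for 45 min) with 1 nM human Tyk2 kinase domain (aa 886–1187, His tag cleaved, baculovirus-expressed), 1 mM ATP, 8 μM Omnia Y12 peptide, in 25 mM HEPES pH 7.4, 10 mM MgCl2, 0.01% Triton X-100, 1 mM DTT, 2% DMSO. IC50 from 4-parameter logistic fit of percent of control.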

The target in a further assay is JAK2 (Homo sapiens (Human), UniProt O60674). Kind of assay: JAK2 Inhibition Assay (Example C, Omnia kinase fluorescence peptide substrate assay). To be noted: JAK2 Enzyme IC50 1 mM ATP, averaged IC50 ranges. The procedure, abridged:
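4 nM JAK2 with 1 mM ATP and 10 μM Omnia Y7 peptide in 25 mM HEPES pH 7.4, 10 mM MgCl2, 0.01% Triton X-100, 1 mM DTT, 2% DMSO. Sox fluorescence (ex 360/em 485 nm) read every 50 s for 45 min; IC50 from 4-parameter fit of percent of control.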

A further assay has as its target JAK1 (Homo sapiens (Human), UniProt P23458). Kind of assay: JAK1 Inhibition Assay (Example B, Omnia kinase fluorescence peptide substrate assay). Summed up:
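Recombinant human JAK1 (12.5 nM) with 1 mM ATP and 8 μM Omnia Y12 Sox-peptide in 25 mM HEPES pH 7.4, 10 mM MgCl2, 0.01% Triton X-100, 1 mM DTT, 2% DMSO final. Phosphorylation read kinetically (ex 360/em 485 nm, 45 min); IC50 from 4-parameter fit of percent of control.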

The mark [1] stands for this setting: JAK1 Enzyme IC50 1 mM ATP, 1 mM ATP, averaged IC50 ranges.

Chain of JAK1 (P23458 whole entry): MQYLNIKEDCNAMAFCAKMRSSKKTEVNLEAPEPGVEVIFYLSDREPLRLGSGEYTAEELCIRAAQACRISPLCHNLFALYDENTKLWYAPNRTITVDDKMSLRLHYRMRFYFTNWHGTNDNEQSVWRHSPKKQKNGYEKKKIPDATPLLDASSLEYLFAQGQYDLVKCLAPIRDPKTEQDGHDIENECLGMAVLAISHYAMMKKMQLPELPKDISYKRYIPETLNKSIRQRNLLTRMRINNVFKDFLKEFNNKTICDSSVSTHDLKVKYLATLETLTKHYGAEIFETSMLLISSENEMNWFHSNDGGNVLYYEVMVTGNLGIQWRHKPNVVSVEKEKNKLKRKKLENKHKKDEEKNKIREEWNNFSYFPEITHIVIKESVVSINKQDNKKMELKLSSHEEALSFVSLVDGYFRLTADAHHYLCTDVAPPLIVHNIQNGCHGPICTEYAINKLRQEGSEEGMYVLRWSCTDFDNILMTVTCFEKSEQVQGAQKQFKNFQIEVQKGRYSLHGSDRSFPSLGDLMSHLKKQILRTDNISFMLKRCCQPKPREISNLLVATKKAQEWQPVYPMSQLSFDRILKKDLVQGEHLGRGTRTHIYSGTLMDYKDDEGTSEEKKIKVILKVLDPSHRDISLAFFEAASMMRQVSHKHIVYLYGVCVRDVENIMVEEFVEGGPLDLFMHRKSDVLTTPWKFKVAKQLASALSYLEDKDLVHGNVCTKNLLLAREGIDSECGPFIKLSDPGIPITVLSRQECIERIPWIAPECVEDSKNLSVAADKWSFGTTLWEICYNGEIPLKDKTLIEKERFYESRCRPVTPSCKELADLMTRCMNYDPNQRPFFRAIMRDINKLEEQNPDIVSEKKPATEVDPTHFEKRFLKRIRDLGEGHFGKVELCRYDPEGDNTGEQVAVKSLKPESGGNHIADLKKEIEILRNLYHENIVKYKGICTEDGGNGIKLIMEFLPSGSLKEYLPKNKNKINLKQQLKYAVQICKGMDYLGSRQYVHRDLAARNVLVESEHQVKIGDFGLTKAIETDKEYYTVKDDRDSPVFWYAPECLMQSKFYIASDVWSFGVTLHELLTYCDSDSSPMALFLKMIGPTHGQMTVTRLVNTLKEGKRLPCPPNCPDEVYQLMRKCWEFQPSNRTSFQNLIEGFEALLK
Chain of JAK2 (O60674 whole entry): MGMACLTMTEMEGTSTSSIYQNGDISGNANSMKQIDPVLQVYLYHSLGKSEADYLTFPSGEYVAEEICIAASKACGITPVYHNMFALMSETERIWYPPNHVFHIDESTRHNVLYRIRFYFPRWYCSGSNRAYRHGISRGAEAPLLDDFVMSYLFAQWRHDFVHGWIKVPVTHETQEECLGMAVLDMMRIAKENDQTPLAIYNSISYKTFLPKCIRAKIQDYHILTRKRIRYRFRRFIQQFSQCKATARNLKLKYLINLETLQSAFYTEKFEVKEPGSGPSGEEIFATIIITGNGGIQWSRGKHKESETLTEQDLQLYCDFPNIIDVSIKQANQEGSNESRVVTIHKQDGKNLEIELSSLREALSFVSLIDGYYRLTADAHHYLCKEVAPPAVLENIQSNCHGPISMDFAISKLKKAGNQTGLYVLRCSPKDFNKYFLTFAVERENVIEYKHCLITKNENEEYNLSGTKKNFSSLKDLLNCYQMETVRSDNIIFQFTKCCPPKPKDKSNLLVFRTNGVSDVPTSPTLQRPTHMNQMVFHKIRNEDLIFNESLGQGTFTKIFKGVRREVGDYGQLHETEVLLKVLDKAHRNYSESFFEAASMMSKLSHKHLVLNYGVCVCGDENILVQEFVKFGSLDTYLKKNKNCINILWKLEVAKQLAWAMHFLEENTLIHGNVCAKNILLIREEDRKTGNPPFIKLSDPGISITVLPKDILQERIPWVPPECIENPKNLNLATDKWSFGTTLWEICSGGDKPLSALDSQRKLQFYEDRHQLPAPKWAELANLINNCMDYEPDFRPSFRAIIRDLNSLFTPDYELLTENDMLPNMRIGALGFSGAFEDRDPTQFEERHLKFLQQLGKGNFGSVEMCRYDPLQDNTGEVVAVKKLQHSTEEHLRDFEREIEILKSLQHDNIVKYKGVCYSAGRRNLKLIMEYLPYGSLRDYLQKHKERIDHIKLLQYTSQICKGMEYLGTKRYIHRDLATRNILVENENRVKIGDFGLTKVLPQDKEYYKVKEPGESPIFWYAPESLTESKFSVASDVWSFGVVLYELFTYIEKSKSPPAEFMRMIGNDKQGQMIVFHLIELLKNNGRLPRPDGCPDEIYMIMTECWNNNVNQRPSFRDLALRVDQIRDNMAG
Chain of JAK3 (P52333 whole entry): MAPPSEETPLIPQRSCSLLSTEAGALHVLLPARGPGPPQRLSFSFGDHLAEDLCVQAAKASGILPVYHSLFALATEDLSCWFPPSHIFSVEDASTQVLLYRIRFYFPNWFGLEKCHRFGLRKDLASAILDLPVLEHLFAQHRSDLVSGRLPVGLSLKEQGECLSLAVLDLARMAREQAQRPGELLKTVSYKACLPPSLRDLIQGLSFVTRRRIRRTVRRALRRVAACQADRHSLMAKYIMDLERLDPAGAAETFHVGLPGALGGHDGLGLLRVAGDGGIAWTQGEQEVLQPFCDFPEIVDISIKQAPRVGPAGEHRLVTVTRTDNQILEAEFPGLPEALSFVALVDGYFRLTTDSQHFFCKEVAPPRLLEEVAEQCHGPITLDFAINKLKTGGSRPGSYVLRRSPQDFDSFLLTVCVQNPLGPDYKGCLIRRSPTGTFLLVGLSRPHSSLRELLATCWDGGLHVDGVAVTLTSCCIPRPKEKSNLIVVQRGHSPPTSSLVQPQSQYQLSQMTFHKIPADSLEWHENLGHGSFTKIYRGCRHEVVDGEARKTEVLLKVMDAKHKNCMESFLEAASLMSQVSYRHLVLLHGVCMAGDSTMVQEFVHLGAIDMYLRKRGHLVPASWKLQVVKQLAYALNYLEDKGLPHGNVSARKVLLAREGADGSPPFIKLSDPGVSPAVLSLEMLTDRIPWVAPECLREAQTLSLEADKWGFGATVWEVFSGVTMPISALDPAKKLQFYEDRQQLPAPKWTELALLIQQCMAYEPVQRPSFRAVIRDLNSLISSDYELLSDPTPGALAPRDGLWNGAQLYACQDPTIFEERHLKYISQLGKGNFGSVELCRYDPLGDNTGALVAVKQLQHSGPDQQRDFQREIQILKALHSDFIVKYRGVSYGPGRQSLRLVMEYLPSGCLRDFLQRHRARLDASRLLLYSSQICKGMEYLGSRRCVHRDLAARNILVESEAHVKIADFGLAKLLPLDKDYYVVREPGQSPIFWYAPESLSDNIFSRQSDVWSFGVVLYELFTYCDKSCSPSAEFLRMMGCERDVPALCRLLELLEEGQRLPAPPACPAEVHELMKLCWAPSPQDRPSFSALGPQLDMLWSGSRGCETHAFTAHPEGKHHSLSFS
Chain of Human Tyk2 kinase domain (P29597 886-1187): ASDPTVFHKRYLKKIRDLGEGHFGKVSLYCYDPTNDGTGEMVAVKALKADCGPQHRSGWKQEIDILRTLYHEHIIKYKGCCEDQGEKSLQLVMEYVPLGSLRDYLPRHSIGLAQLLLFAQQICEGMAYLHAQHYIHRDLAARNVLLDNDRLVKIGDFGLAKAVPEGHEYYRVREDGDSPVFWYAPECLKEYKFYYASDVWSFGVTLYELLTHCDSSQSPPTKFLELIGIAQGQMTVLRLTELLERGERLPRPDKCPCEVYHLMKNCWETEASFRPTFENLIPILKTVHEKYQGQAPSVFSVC

As for `CCC(CC)n1cc(-c2nc(-c3cnn(CCN[C@H]4CCN(C)C4=O)c3)cn3nccc23)cn1` [Example 142, (S)-1-methyl-3-((2-(4-(4-(1-(pentan-3-yl)-1H-pyrazol-4-yl)pyrazolo[1,5-a]pyrazin-6-yl)-1H-pyrazol-1-yl)ethyl)amino)pyrrolidin-2-one], the IC50 is 1 to 10 µM at JAK3, 10 to 100 nM against Human Tyk2 kinase domain, 10 to 100 nM at JAK2 and 1000 to 10000 nM against JAK1.

With `CCC(CC)n1cc(-c2nc(-c3cnn(CCN[C@@H]4CCN(C)C4=O)c3)cn3nccc23)cn1` [Example 143, (R)-1-methyl-3-((2-(4-(4-(1-(pentan-3-yl)-1H-pyrazol-4-yl)pyrazolo[1,5-a]pyrazin-6-yl)-1H-pyrazol-1-yl)ethyl)amino)pyrrolidin-2-one], the IC50 was 1 to 10 µM against JAK3, 100 to 1000 nM against Human Tyk2 kinase domain, 10 to 100 nM at JAK2 and 1000 to 10000 nM against JAK1.

Consider `CCC(CC)n1cc(-c2nc(-c3cnn(CCN4CCNC(=O)C4)c3)cn3nccc23)cn1` [Example 144, 4-(2-(4-(4-(1-(pentan-3-yl)-1H-pyrazol-4-yl)pyrazolo[1,5-a]pyrazin-6-yl)-1H-pyrazol-1-yl)ethyl)piperazin-2-one], for which the IC50 against JAK3 lay within 1 to 10 µM; at Human Tyk2 kinase domain it was 10 to 100 nM; at JAK2, 10 to 100 nM; on JAK1 it was 100 to 1000 nM.

For `CCC(CC)n1cc(-c2nc(-c3cnn(CCNC4CC(CO)C4)c3)cn3nccc23)cn1` (stereo not shown) [Example 145, (3-((2-(4-(4-(1-(pentan-3-yl)-1H-pyrazol-4-yl)pyrazolo[1,5-a]pyrazin-6-yl)-1H-pyrazol-1-yl)ethyl)amino)cyclobutyl)methanol], the IC50 at JAK3 was 1 to 10 µM; against Human Tyk2 kinase domain, 100 to 1000 nM; against JAK2, 10 to 100 nM; on JAK1, 100 to 1000 nM.

As for `CCC(CC)n1cc(-c2nc(-c3cnn(CCN4CCC(CO)CC4)c3)cn3nccc23)cn1` [Example 146, (1-(2-(4-(4-(1-(pentan-3-yl)-1H-pyrazol-4-yl)pyrazolo[1,5-a]pyrazin-6-yl)-1H-pyrazol-1-yl)ethyl)piperidin-4-yl)methanol], the IC50 at JAK3 was in the range of 1 to 10 µM; against Human Tyk2 kinase domain, 10 to 100 nM; on JAK2 it was 10 to 100 nM; on JAK1, 1000 to 10000 nM.

As to `CCC(CC)n1cc(-c2nc(-c3cnn(CCN4CCNCC4=O)c3)cn3nccc23)cn1` [Example 147, 1-(2-(4-(4-(1-(pentan-3-yl)-1H-pyrazol-4-yl)pyrazolo[1,5-a]pyrazin-6-yl)-1H-pyrazol-1-yl)ethyl)piperazin-2-one], the IC50 against JAK3 was in the range of 1 to 10 µM; against Human Tyk2 kinase domain, 10 to 100 nM; against JAK2, 10 to 100 nM; against JAK1 it was 1000 to 10000 nM.

Turning to `CCC(CC)n1cc(-c2nc(-c3cnn([C@H]4C[C@H](O)C4)c3)cn3nccc23)cn1` [Example 161, trans-3-(4-(4-(1-(pentan-3-yl)-1H-pyrazol-4-yl)pyrazolo[1,5-a]pyrazin-6-yl)-1H-pyrazol-1-yl)cyclobutanol], the IC50 is 1 to 10 µM against JAK3, 10 to 100 nM at Human Tyk2 kinase domain, 10 to 100 nM against JAK2 and 100 to 1000 nM on JAK1 (setting [1]).

`CCC(CC)n1cc(-c2nc(-c3cnn([C@H]4C[C@H](CO)C4)c3)cn3nccc23)cn1` [Example 165, (trans-3-(4-(4-(1-(pentan-3-yl)-1H-pyrazol-4-yl)pyrazolo[1,5-a]pyrazin-6-yl)-1H-pyrazol-1-yl)cyclobutyl)methanol]: the IC50 against JAK3 lay within 1 to 10 µM; on Human Tyk2 kinase domain it was 10 to 100 nM; against JAK2 it was 10 to 100 nM; on JAK1 it was 100 to 1000 nM.

On to `CCC(CC)n1cc(-c2nc(-c3cnn([C@H]4C[C@H](C(N)=O)C4)c3)cn3nccc23)cn1` [Example 167, (1r,3r)-3-(4-(4-(1-(pentan-3-yl)-1H-pyrazol-4-yl)pyrazolo[1,5-a]pyrazin-6-yl)-1H-pyrazol-1-yl)cyclobutanecarboxamide], for which the IC50 against JAK3 was in the range of 1 to 10 µM; against Human Tyk2 kinase domain it was 10 to 100 nM; at JAK2, 10 to 100 nM; against JAK1, 100 to 1000 nM.

As to `CCC(CC)n1cc(-c2nc(-c3cnn([C@H]4C[C@H](C(=O)N(C)C)C4)c3)cn3nccc23)cn1` [Example 169, (1r,3r)-N,N-dimethyl-3-(4-(4-(1-(pentan-3-yl)-1H-pyrazol-4-yl)pyrazolo[1,5-a]pyrazin-6-yl)-1H-pyrazol-1-yl)cyclobutanecarboxamide], the IC50 against JAK3 lay within 1 to 10 µM; on Human Tyk2 kinase domain, 100 to 1000 nM; at JAK2, 100 to 1000 nM; on JAK1, 1000 to 10000 nM.

`CCC(CC)n1cc(-c2nc(-c3cnn([C@H]4C[C@@H](C(=O)N(C)C)C4)c3)cn3nccc23)cn1` [Example 170, (1s,3s)-N,N-dimethyl-3-(4-(4-(1-(pentan-3-yl)-1H-pyrazol-4-yl)pyrazolo[1,5-a]pyrazin-6-yl)-1H-pyrazol-1-yl)cyclobutanecarboxamide]: the IC50 against JAK3 was 1 to 10 µM; against Human Tyk2 kinase domain, 10 to 100 nM; against JAK2, 10 to 100 nM; on JAK1 it was 100 to 1000 nM.

For the compound `CCC(CC)n1cc(-c2nc(-c3cnn(C4CN(C(=O)[C@H](C)O)C4)c3)cn3nccc23)cn1` [Example 173, (S)-2-hydroxy-1-(3-(4-(4-(1-(pentan-3-yl)-1H-pyrazol-4-yl)pyrazolo[1,5-a]pyrazin-6-yl)-1H-pyrazol-1-yl)azetidin-1-yl)propan-1-one], the IC50 against JAK3 lay within 1 to 10 µM; on Human Tyk2 kinase domain, 10 to 100 nM; on JAK2, 10 to 100 nM; against JAK1, 100 to 1000 nM.

For `CCC(CC)n1cc(-c2nc(-c3cnn(C4CN(C(=O)[C@@H](C)O)C4)c3)cn3nccc23)cn1` [Example 175, (R)-2-hydroxy-1-(3-(4-(4-(1-(pentan-3-yl)-1H-pyrazol-4-yl)pyrazolo[1,5-a]pyrazin-6-yl)-1H-pyrazol-1-yl)azetidin-1-yl)propan-1-one], the half-inhibitory concentration (IC50) was in the range of 1 to 10 µM against JAK3, 100 to 1000 nM on Human Tyk2 kinase domain, 10 to 100 nM at JAK2 and 1000 to 10000 nM on JAK1.

Turning to `CCC(CC)n1cc(-c2nc(-c3cnn(C4CN(C(=O)[C@H]5C[C@@H](O)C5)C4)c3)cn3nccc23)cn1` [Example 178, (cis-3-hydroxycyclobutyl)(3-(4-(4-(1-(pentan-3-yl)-1H-pyrazol-4-yl)pyrazolo[1,5-a]pyrazin-6-yl)-1H-pyrazol-1-yl)azetidin-1-yl)methanone], the IC50 against JAK3 lay in the range of 1 to 10 µM; on Human Tyk2 kinase domain it was 10 to 100 nM; against JAK2 it was 10 to 100 nM; against JAK1, 1000 to 10000 nM.

Take `CCC(CC)n1cc(-c2nc(-c3cnn(C4CN(C(=O)[C@H]5C[C@H](O)C5)C4)c3)cn3nccc23)cn1` [Example 179, (trans-3-hydroxycyclobutyl)(3-(4-(4-(1-(pentan-3-yl)-1H-pyrazol-4-yl)pyrazolo[1,5-a]pyrazin-6-yl)-1H-pyrazol-1-yl)azetidin-1-yl)methanone]: the IC50 was 1 to 10 µM on JAK3, 10 to 100 nM on Human Tyk2 kinase domain, 10 to 100 nM against JAK2 and 1000 to 10000 nM against JAK1.

As for `CCC(CC)n1cc(-c2nc(-c3cnn(C4CN(C(=O)CN5CC(O)C5)C4)c3)cn3nccc23)cn1` [Example 180, 2-(3-hydroxyazetidin-1-yl)-1-(3-(4-(4-(1-(pentan-3-yl)-1H-pyrazol-4-yl)pyrazolo[1,5-a]pyrazin-6-yl)-1H-pyrazol-1-yl)azetidin-1-yl)ethanone], the half-inhibitory concentration (IC50) was 1 to 10 µM on JAK3, 100 to 1000 nM on Human Tyk2 kinase domain, 100 to 1000 nM at JAK2 and 1000 to 10000 nM at JAK1 (setting [1]).

For `CCC(CC)n1cc(-c2nc(-c3cnn(C4CN(C(=O)CN5CCCC5)C4)c3)cn3nccc23)cn1` [Example 181, 1-(3-(4-(4-(1-(pentan-3-yl)-1H-pyrazol-4-yl)pyrazolo[1,5-a]pyrazin-6-yl)-1H-pyrazol-1-yl)azetidin-1-yl)-2-(pyrrolidin-1-yl)ethanone], the IC50 against JAK3 lay in the range of 1 to 10 µM; at Human Tyk2 kinase domain, 10 to 100 nM; on JAK2 it was 10 to 100 nM; at JAK1 (setting [1]) it was 100 to 1000 nM.

`CCC(CC)n1cc(-c2nc(-c3cnn(C4CN(C(=O)C(=O)N(C)C)C4)c3)cn3nccc23)cn1` [Example 182, N,N-dimethyl-2-oxo-2-(3-(4-(4-(1-(pentan-3-yl)-1H-pyrazol-4-yl)pyrazolo[1,5-a]pyrazin-6-yl)-1H-pyrazol-1-yl)azetidin-1-yl)acetamide]: the IC50 against JAK3 fell in the range of 1 to 10 µM; on Human Tyk2 kinase domain, 10 to 100 nM; against JAK2, 10 to 100 nM; against JAK1, 100 to 1000 nM.

With `CCC(CC)n1cc(-c2nc(-c3cnn(C[C@H](N)C(C)(C)O)c3)cn3nccc23)cn1` [Example 183, (S)-3-amino-2-methyl-4-(4-(4-(1-(pentan-3-yl)-1H-pyrazol-4-yl)pyrazolo[1,5-a]pyrazin-6-yl)-1H-pyrazol-1-yl)butan-2-ol], the IC50 fell in the range of 1 to 10 µM at JAK3, 10 to 100 nM at Human Tyk2 kinase domain, 10 to 100 nM against JAK2 and 1000 to 10000 nM on JAK1.
